From patent US7320785B2, “Compositions and methods for modulation of DARPP-32 phosphorylation” (The Rockefeller University, priority 2001, dated 2008)
Where two headings read alike, the source gives them in different places. Marks after values point to notes of the source that are not given here.

Assays:
[1] = forced-swim test and tail suspension test; cited from earlier work
DARPP-32 [2] = assay: DARPP-32 phosphorylation in vivo in mice after i.p. injection, immunoblotting; set-up: species or system mouse
c-fos mRNA = c-fos mRNA expression by in situ hybridization in WT and DARPP-32 KO mice; format: in vivo, mouse; details: PCA 4 mg/kg i.p.; 20 min postinjection
Description: Twenty minutes after the injections, the animals were killed by decapitation and their brains frozen at −80° C. Coronal sections were then made and processed for in situ hybridization experiments with a probe against c-fos mRNA. The expression of c-fos mRNA is widely used as a marker for the biochemical activity of neurons. Manipulations of the serotonergic system, by PCA (4 mg/kg) and 5-HTP (50 mg/kg+carbidopa 50 mg/kg), increased c-fos mRNA expression in several brain regions, including prefrontal cortex and striatum in DARPP-32 wild-type mice.

WT and DARPP-32 KO mice = assay: Locomotor activity measurements in activity monitors; format: in vivo, mouse; details: PCA 4 mg/kg i.p.
Description: Locomotor activity of WT and DARPP-32 KO mice was measured in activity monitors (43×44×45 cm) equipped with both horizontal and vertical sensors (Opto-Varimex, Columbus Instruments, Columbus, Ohio). Mice were acclimated to the boxes for 1 h, […] before the day of the experiment. The day of the experiment, mice were placed in the boxes for 20 min (habituation period) before drug administration. […] Locomotor activity parameters (distance traveled and stereotypic movements) were quantified by using the AutoTrack System (Columbus Instruments).

DARPP-32 [3] = assay: Thr34-DARPP-32 phosphorylation in striatal slices from unilaterally 6-OHDA-lesioned rats; format: cell-based, rat
Description: Further experiments were conducted that provide evidence that activation of a serotonergic intracellular signaling pathway and of DARPP-32 has applicability in the treatment of Parkinson's disease. In these experiment, rats were unilaterally (i.e. in one hemisphere) injected with 6-OHDA (6-hydroxydopamine; a dopaminergic neurotoxin) according to standard methods. The 6-OHDA is selectively taken up by dopaminergic neurons and kills the neurons. Such 6-OHDA-lesioned animals are considered an animal model of Parkinson's disease. The 6-OHDA-lesioned animals were sacrificed, striatal slices were prepared, as described hereinabove, from the non-lesioned (i.e., “normal”) and the 6-OHDA-lesioned (i.e., “dopamine-depleted”) hemispheres, and used for striatal slice experiments according to the methods described hereinabove. 5-HT or saline (control) was administered according to the methods described hereinabove. […] The interpretation of these experiments is that 5-HT activates DARPP-32 phosphorylation via a mechanism that is largely independent of enhanced dopaminergic neurotransmission. Agents that enhance serotonergic neurotransmission, and that are stimulatory, can thus exert anti-Parkinsonian effects independent of dopamine, and can be used in the treatment of Parkinson's disease.

[4] = test system: GluR1 subunit of the AMPA receptor; assay: Phosphorylation of the GluR1 subunit of the AMPA receptor in slices from WT and DARPP-32 KO mice; format: cell-based, mouse
Description: In order to evaluate the involvement of DARPP-32 in the activity of serotonin, mice that lack DARPP-32 (DARPP-32 knockout (KO) mice) were used. In one set of experiments, striatal slices were prepared from normal mice (DARPP-32 wild-type) and DARPP-32 knockout mice and incubated with serotonin for 5 minutes. Experiments were then carried out to determine the levels of phospho-Ser845 of the GluR1 subunit of the AMPA (AMPA, α-amino-3-hydroxy-5-methyl-4-isoxazolepropionic acid) receptor.

DARPP-32 [5] = assay: DARPP-32 phosphorylation in mouse brain slices, immunoblotting with phosphorylation state-specific antibodies; details: for EC50 / activity at 100 µM: Mus musculus
depressed patients = details: several clinical trials; cited from earlier work
[6] = prefrontal cortex, PCA 4 mg/kg i.p., 15 min, n=5 mice
[7] = striatum, 4 mg/kg i.p., 15 min after injection
[8] = slices from hippocampus, frontal cortex, striatum, WT mice, serotonin 100 μM, 10 min
[9] = striatal slices, serotonin for 5 minutes
[10] = nucleus accumbens slices, serotonin 100 μM, 2 min, n=12

In the case of CC(CNS(=O)(=O)C(C)C)c1ccc(-c2ccc(C#N)cc2)cc1 (centres unmarked) [LY404187], the antidepressant-like actions [1] is given as “robust antidepressant-like actions”.
In the case of CC(N)Cc1ccc(Cl)cc1 (centres unmarked) [PCA, para-chloroamphetamine], the “phospho-Thr34 DARPP-32” value (DARPP-32 [2]; [6]) is reported as 147±4.8%, the “phospho-Thr75 DARPP-32” value (DARPP-32 [2]; [6]) is reported as 79±3.8% and the “Percent Phospho-Ser137” value (DARPP-32 [2]; [7]) is reported as 128(7.1)* Percent. The “Percent Phospho-Thr34” value (DARPP-32 [2]; [7]) was 171(9.1)* Percent, the “Percent Phospho-Thr75” value (DARPP-32 [2]; [7]) was 80.1(3.4)* Percent and the “c-fos mRNA Levels in Striatum, DARPP-32 Knockout” value (c-fos mRNA) was 0.084(0.010)#*. For the same compound, the “c-fos mRNA Levels in Striatum, DARPP-32 Wild-type” value (c-fos mRNA) was 0.181(0.021)*, the “locomotor activity and stereotypic behavior” value (WT and DARPP-32 KO mice; DARPP-32 KO mice) was “abolished” and the “locomotor activity and stereotypic behavior” value (WT and DARPP-32 KO mice; WT mice, 50 min) was “robust increase”.
In the case of NCCc1c[nH]c2ccc(O)cc12 [Serotonin], the “Percent Phospho-Thr34” value (DARPP-32 [3]; 6-OHDA lesioned hemisphere) is reported as 369(67.2)* Percent, the “Percent Phospho-Thr34” value (DARPP-32 [3]; Intact hemisphere) is reported as 306(50.7) Percent and the “increased phosphorylation at Ser-845 GluR1, DARPP-32 KO versus WT” value ([4]; slices from DARPP-32 KO mice, serotonin 100 μM) is reported as “significantly reduced”. For the same compound, the “phosphorylation at Ser-831 GluR1” value [4, 8] was “increased”, the “phosphorylation at Ser-845 GluR1” value [4, 8] was “increased” and the “Ser845-GluR1 Levels, DARPP-32 Knockout” value [4, 9] was 111(14.9)# percentage of control. The “Ser845-GluR1 Levels, DARPP-32 Wild-type” value [4, 9] was 199(22.7)* percentage of control, the EC50 (DARPP-32 [5]; 2 min, read-out: EC50 for effect on DARPP-32 phosphorylation at Ser137) was 37.6 µM and the EC50 (DARPP-32 [5]; 2 min, read-out: EC50 for effect on DARPP-32 phosphorylation at Thr34) was 13.5 µM. The activity at 100 µM (DARPP-32 [5]; 2 min, read-out: Percent Phospho-Ser137) was 141%, the activity at 100 µM (DARPP-32 [5]; 2 min, read-out: Percent Phospho-Thr34) was 342% and the EC50 (DARPP-32 [5]; 10 min, read-out: EC50 for effect on DARPP-32 phosphorylation at Thr75) was 29.6 µM. The activity at 100 µM (DARPP-32 [5]; 10 min, read-out: Percent Phospho-Thr75) was 76%, the “phosphorylation at Ser137” value (DARPP-32 [5]; [10]) was 143±7% and the “phosphorylation at Thr34” value (DARPP-32 [5]; [10]) was 307±25%. The “phosphorylation at Thr75” value (DARPP-32 [5]; nucleus accumbens slices, serotonin, 10 min, n=12) was 75±6%, the “phospho-Thr34 DARPP-32” value (DARPP-32 [5]; prefrontal cortex slices, 2 min of incubation, n=6) was 185±15% and the “phospho-Thr75 DARPP-32” value (DARPP-32 [5]; prefrontal cortex slices, 10 min of incubation, n=6) was 85±3%.
In the case of COc1ccc(C2CNC(=O)C2)cc1OC1CCCC1 (centres unmarked) [rolipram], the anti-depressant efficacy (depressed patients) is listed as “has anti-depressant efficacy”.
